Results reported in the supplement of paper PMC11451515.

System: SEM cells
Assay: cell viability relative to DMSO control; higher = less cytotoxic
Conditions: 48 h
Procedure, shortened: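 Three leukemia lines were tested: NOMO1 and SEM at 500 cells/well and P12-Ichikawa at 1000 cells/well. Each was adapted for at least four passages in each medium and seeded in 5 μl in 1536-well plates, and library compounds in DMSO were pin-dosed from 47 μM to 0.79 nM in 11 threefold steps. After 48 h at 37°C, CellTiter-Glo One luminescence was read. Viability is a percentage relative to DMSO wells on each plate, with cell-free wells as background.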

[1] = HPLM + 10% dialyzed FBS, 0.000781 µM
[2] = HPLM + 10% dialyzed FBS, 0.00234 µM
[3] = HPLM + 10% dialyzed FBS, 0.00702 µM
[4] = HPLM + 10% dialyzed FBS, 0.0211 µM
[5] = HPLM + 10% dialyzed FBS, 0.0632 µM
[6] = HPLM + 10% dialyzed FBS, 0.19 µM
[7] = HPLM + 10% dialyzed FBS, 0.569 µM
[8] = HPLM + 10% dialyzed FBS, 1.71 µM
[9] = HPLM + 10% dialyzed FBS, 5.12 µM
[10] = HPLM + 10% dialyzed FBS, 15.4 µM
[11] = HPLM + 10% dialyzed FBS, 46.1 µM
[12] = RPMI 5 mM glucose + 10% FBS, 0.000781 µM
[13] = RPMI 5 mM glucose + 10% FBS, 0.00234 µM
[14] = RPMI 5 mM glucose + 10% FBS, 0.00702 µM
[15] = RPMI 5 mM glucose + 10% FBS, 0.0211 µM
[16] = RPMI 5 mM glucose + 10% FBS, 0.0632 µM
[17] = RPMI 5 mM glucose + 10% FBS, 0.19 µM
[18] = RPMI 5 mM glucose + 10% FBS, 0.569 µM
[19] = RPMI 5 mM glucose + 10% FBS, 1.71 µM
[20] = RPMI 5 mM glucose + 10% FBS, 5.12 µM
[21] = RPMI 5 mM glucose + 10% FBS, 15.4 µM
[22] = RPMI 5 mM glucose + 10% FBS, 46.1 µM
[23] = RPMI 5 mM glucose + 10% dialyzed FBS, 0.000781 µM
[24] = RPMI 5 mM glucose + 10% dialyzed FBS, 0.00234 µM
[25] = RPMI 5 mM glucose + 10% dialyzed FBS, 0.00702 µM
[26] = RPMI 5 mM glucose + 10% dialyzed FBS, 0.0211 µM
[27] = RPMI 5 mM glucose + 10% dialyzed FBS, 0.0632 µM
[28] = RPMI 5 mM glucose + 10% dialyzed FBS, 0.19 µM
[29] = RPMI 5 mM glucose + 10% dialyzed FBS, 0.569 µM
[30] = RPMI 5 mM glucose + 10% dialyzed FBS, 1.71 µM
[31] = RPMI 5 mM glucose + 10% dialyzed FBS, 5.12 µM
[32] = RPMI 5 mM glucose + 10% dialyzed FBS, 15.4 µM
[33] = RPMI 5 mM glucose + 10% dialyzed FBS, 46.1 µM

SMILES	cell viability [1] [%]	cell viability [2] [%]	cell viability [3] [%]	cell viability [4] [%]	cell viability [5] [%]	cell viability [6] [%]	cell viability [7] [%]	cell viability [8] [%]	cell viability [9] [%]	cell viability [10] [%]	cell viability [11] [%]	cell viability [12] [%]	cell viability [13] [%]	cell viability [14] [%]	cell viability [15] [%]	cell viability [16] [%]	cell viability [17] [%]	cell viability [18] [%]	cell viability [19] [%]	cell viability [20] [%]	cell viability [21] [%]	cell viability [22] [%]	cell viability [23] [%]	cell viability [24] [%]	cell viability [25] [%]	cell viability [26] [%]	cell viability [27] [%]	cell viability [28] [%]	cell viability [29] [%]	cell viability [30] [%]	cell viability [31] [%]	cell viability [32] [%]	cell viability [33] [%]
CCC1(c2ccccc2)C(=O)NCNC1=O	94.6	104	105	78.7	102	110	114	117	116	106	122	100	112	108	76.1	106	109	108	103	116	113	117	91.6	115	123	84.4	108	120	117	115	114	117	109
Cn1cnc2c(F)c(Nc3ccc(Br)cc3F)c(C(=O)NOCCO)cc21	95.3	84.2	93.4	22	105	89.5	80	85.4	87.9	87.7	74.3	85.3	86.1	96.9	16	94.1	108	89.2	85.9	87.1	70.9	61.6	88.1	85.5	107	19.6	87.5	91.5	83.1	70.6	76.2	66	52.8
C[C@]12CC[C@H]3[C@@H](CC[C@H]4NC(=O)\C=C/[C@]34C)[C@@H]1CC[C@@H]2C(=O)NC5=CC(=CC=C5C(F)(F)F)C(F)(F)F	116	122	118	117	118	61.3	119	113	81.1	111	99.3	123	120	138	132	120	115	124	129	56	128	126	114	141	120	126	121	100	126	121	37.1	117	105
COc1ccccc1OCC(O)COC(N)=O (configuration not stated)	84	102	104	110	118	114	109	106	119	111	89.1	94.6	110	85.6	110	104	95.8	112	106	120	97.6	99.4	108	109	103	123	106	121	136	93.8	126	118	112
O=C(O)C1(Cc2cccc(Nc3nccs3)n2)CCC(Oc2cccc(Cl)c2F)CC1 (configuration not stated)	86.3	108	93.3	68.4	104	101	108	75.6	42	28.9	18.9	97	88.9	101	87.4	114	96.5	102	66.5	43.1	22.2	12.7	81.9	86.5	97.5	92.6	95.1	111	111	68.7	43.2	25.2	17.1
NNCCc1ccccc1	–	–	–	–	–	–	–	–	–	–	–	–	–	–	–	–	–	–	–	–	–	–	102	120	120	127	127	112	115	127	103	117	75.3
CNC(=O)c1ccc(N2C(=S)N(c3cnc(C#N)c(C(F)(F)F)c3)C(=O)C23CCC3)cc1F	92.3	88.8	80.1	103	76.8	95.6	105	98	107	101	95.2	83.9	94.1	90.7	93.6	97.1	92.7	94.8	101	98.3	98.6	93.9	82.6	95.3	85.3	91.5	114	100	97.8	98.2	96.8	93.3	108
CCc1ccc(CCOc2ccc(CC3SC(=O)NC3=O)cc2)nc1 (configuration not stated)	120	115	112	113	124	108	42.4	117	122	119	89.6	93.5	86.9	88.1	85.9	85.6	83.4	61	94.9	87	80	80.7	112	115	111	143	129	116	68.6	137	122	122	110
